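These data come from cells grown in 96-well plates and exposed to compound for 48 hours at five concentrations. Here, GI50 denotes the concentration required for 50% inhibition of growth.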 Active and inactive are the calls of the source. Cut-off read from the data, not from the text of the source: active = GI50 up to about 1.1 µM and inactive = higher.
How the values were obtained:
Assay in all cases: inhibition of tumour cell growth, NCI panel, 48 h
RXF 631 = tested on: RXF 631
M19-MEL = tested on: M19-MEL
DMS-273 = tested on: DMS-273
XF498 = tested on: XF498

Measured: GI50

COC(=O)c1cc2c(s1)C(=O)c1ccccc1-2
inactive: RXF 631 > 100 µM | M19-MEL > 100 µM | DMS-273 > 100 µM

O=c1c2ccccc2nc(-c2ccc(Br)cc2)n1NC1OC(CO)C(O)C(O)C1O (stereo not drawn)
inactive: RXF 631 > 100 µM | M19-MEL > 100 µM | DMS-273 > 100 µM

COc1cc(C2C(C(=O)NCc3ccccc3)=C(C)NC(C)=C2C(=O)NCc2ccccc2)ccc1O
inactive: RXF 631 27.3 µM | M19-MEL 39.4 µM | DMS-273 29.4 µM | XF498 61.5 µM

O=C1NC2OCC(O)C(O1)C2O (stereo not drawn)
inactive: RXF 631 > 100 µM | M19-MEL > 100 µM | DMS-273 > 100 µM | XF498 > 100 µM

C(=C\c1csnn1)/c1cccnc1
inactive: RXF 631 81.7 µM | M19-MEL > 100 µM | XF498 > 100 µM

CN(C)/N=C(/c1nc2ccc(Cl)cc2nc1O)C(O)c1ccc(C(O)/C(=N\N(C)C)c2nc3ccc(Cl)cc3nc2O)cc1 (stereo not drawn)
inactive: RXF 631 91.4 µM | M19-MEL > 100 µM

COc1ccc(C2C3C(=O)C=CC(=O)C3[C@@H]2C)cc1OC (stereo partly drawn)
inactive: RXF 631 > 100 µM | M19-MEL > 100 µM | DMS-273 61.4 µM | XF498 56.1 µM

CCOc1ccc(NC(=O)C(=O)CC(=O)c2c(C)[n+]([O-])c3ccccc3[n+]2[O-])cc1
inactive: RXF 631 > 100 µM | M19-MEL > 100 µM | DMS-273 > 100 µM | XF498 59.8 µM

O=C1NC2(CCCCC2)C2CCCCC(O)C12 (stereo not drawn)
inactive: RXF 631 > 100 µM | M19-MEL > 100 µM | DMS-273 > 100 µM

C=C1C(=O)O[C@@H]2C[C@@]3(C)[C@H](O)CCC(=C)[C@@H]3C[C@H]12 [ASPERILIN]
inactive: RXF 631 13.6 µM | M19-MEL 6.68 µM | DMS-273 8.38 µM | XF498 2.59 µM

CCC1=CCN(c2ccc(C)cc2)OC1c1ccc(OC)cc1 (stereo not drawn)
inactive: RXF 631 52.4 µM | M19-MEL 42.7 µM | DMS-273 69.8 µM | XF498 46.6 µM

CC(=O)OC1/C=C(\C)C(OC(C)=O)C/C=C(/C)CCC2C(/C=C/C1=O)C2(C)C (stereo not drawn)
inactive: RXF 631 > 100 µM | M19-MEL > 100 µM | XF498 35.7 µM

O=C1N(C2CCCCC2)CC12CCCCC2
inactive: RXF 631 > 100 µM | M19-MEL > 100 µM | DMS-273 > 100 µM | XF498 > 100 µM

CCOC(=O)/C(=C/c1ccc[nH]1)P(=O)(OCC)OCC
inactive: RXF 631 > 100 µM | M19-MEL > 100 µM | DMS-273 > 100 µM | XF498 > 100 µM

C[C@]12CC[C@H](OC3CCCCO3)CC1=CC[C@@H]1C2CC[C@]2(C)/C(=N/OCCC#N)CCC12 (stereo partly drawn)
inactive: RXF 631 33.6 µM | M19-MEL > 100 µM | DMS-273 76.7 µM | XF498 4.62 µM

— ChEMBL document CHEMBL1201862, “PubChem BioAssay data set” (2004)
